In patent US20230271924A1 (published 2023) one finds melting point data, which are given here for 2 molecules.

A word on the melting point: it is the temperature, or range, at which the solid turns liquid. `CCCCCCCCCCCCCC(=O)Oc1cccc2[nH]cc(CCN(C)C)c12`: the melting point fell in the range of 58 to 59 °C.
With `CCCCCCCC(=O)Oc1cccc2[nH]cc(CCN(C)C)c12`, the melting point was in the range of 69 to 70 °C.
